The test system of data set [1] is carrageenin-induced foot edema. Put plainly: inhibition of carrageenin-induced foot edema test (C.E.). It counts as in vivo. The note with it: oral; for inhibition in vivo at 20 µmol/kg: dose 0.02 millimoles/kg; for inhibition in vivo at 4 µmol/kg: dose 0.004 millimoles/kg; for C.E. percent inhibition (Table B): formula V amides. As to the method: (§1) Anti-inflammatory activity was determined using (1) the inhibition of carrageenin-induced foot edema test essentially described by Winter et al., Proc. Soc. Exp. Biol. and Med. 111, 554 (1962) as modified by Van Arman et al., J. Pharmacol. Exptl. Therap. 150, 328 (1965) and (2) a modification of the inhibition of adjuvant-induced arthritis test described by Pierson, J. Chronic Diseases 16, 863 (1963) and Glenn et al., Am. J. Vet. Res. 26, 1180 (1965).
(§2) The N-{2-,3- and 4-[R1 -(phenyl)-C(=X)]-phenyl-lower-alkyl}amines of formulas I, Ia and Ib of the invention have been tested in the carrageenin edema (CE) and adjuvant arthritis (AA) tests and found to have anti-inflammatory activity. For comparative purposes, data obtained in the carrageenin edema test on the reference compound (designated "Ref."), 4[(3-benzoylphenyl)methyl]morpholine, disclosed in French Patent 1,549,342, are also given. All data were obtained on oral administration.

Data set [2] concerns adjuvant-induced arthritis. Put plainly: inhibition of adjuvant-induced arthritis test (A.A.). It counts as in vivo. The note with it: oral; for inhibition in vivo at 5 µmol/kg: dose 0.005 millimoles/kg; for inhibition in vivo at 5 µmol/kg / inhibition in vivo at 20 µmol/kg / inhibition in vivo at 80 µmol/kg / inhibition in vivo at 324 µmol/kg: read-out: A.A. percent inhibition; for inhibition in vivo at 20 µmol/kg: dose 0.02 millimoles/kg; for A.A. percent inhibition (Table B): formula V amides. As to the method:
as §1, §2

In data set [3] the test system is acetylcholine-induced abdominal constriction. The data set is described as follows: acetylcholine-induced abdominal constriction test (Ach). The format is in vivo, mice. The note with it: for ED50: Mus musculus, read-out: Ach ED50. The text has this: J. Pharmacol. Chemotherap. 32, 295 (1968); a modification of the anti-bradykinin test, which is also a primary analgesic screening procedure, described by Berkowitz et al., J. Pharmacol. Exp. Therap. 177, 500-508 (1971), Blane et al., J. Pharm. Pharmacol. 19, 367-373 (1967), Botha et al., Eur. J. Pharmacol. 6, 312-321 (1969) and Deffenu et al., J. Pharm. Pharmacol. 18, 135 (1966); the phenyl-p-quinone-induced writhing test, also a primary analgesic screening test, designed to measure the ability of a test agent to prevent phenyl-p-quinone-induced writhing in mice, described by Pearl and Harris, J. Pharmacol. Exptl. Therap. 154, 319-323 (1966); the rat tail flick radiant thermal heat analgesic (agonist) test described by D'Amour and Smith, J. Pharmacol. Exptl. Therap. 72, 74 (1941) as modified by Bass and VanderBrook, J. Am. Pharm. Assoc. Sci. Ed. 41, 569 (1956); and the phenazocine antagonist test, which is designed to measure the ability of a test agent to antagonize the effect of phenazocine in the above-indicated rat tail flick response test, described by Harris and Pierson, J. Pharmacol. Exptl. Therap. 143, 141 (1964).
The ED50 is the calculated Effective Dose in 50% of the test animals. The abbreviations s.c., p.o. and i.p. stand for subcutaneous, peroral and intraperitoneal routes of administration, respectively. The compounds are identified by the Example numbers above where their preparations are described.

Setting [4] is: read-out: C.E. percent inhibition.
[5] abbreviates: dose 0.08 millimoles/kg, read-out: C.E. percent inhibition.
The mark [6] stands for this setting: dose 0.324 millimoles/kg, read-out: C.E. percent inhibition.

Where a name gives a salt, the structure may show the parent alone. Read-outs that look alike come from different tables or passages of the source.

`CC(CN1CCCCC1CC1CCCCC1)c1cccc(C(O)c2ccccc2)c1` (stereo not drawn) [Example 1, 2-cyclohexylmethyl-1-{2-[3-(α-hydroxybenzyl)phenyl]propyl}piperidine]: the inhibition in vivo at 5 µmol/kg stood at 13% in data set [1] (dose 0.005 millimoles/kg, read-out: C.E. percent inhibition) and 56% in data set [2]. The inhibition in vivo at 20 µmol/kg in data set [1] (setting [4]) worked out at 23%; in data set [2] it was 73%. Also, the inhibition in vivo at 80 µmol/kg in data set [1] (setting [5]) is 60%; in data set [2] (dose 0.08 millimoles/kg), 91%. Besides, the inhibition in vivo at 324 µmol/kg in data set [1] (setting [6]) turned out to be 73%. For the same compound, the ED50 in data set [3] (po) was determined as 71 mg/kg. The “Ach percent inhibition of writhing” value in data set [3] (dose 25, s.c.) amounted to 7%; in data set [3] (dose 75, s.c.), 33%.
For `CC(CN1CCCCC1C1CCCCC1)c1cccc(C(=O)c2ccccc2)c1` (stereo not drawn) [Example 7E, 2-Cyclohexyl-1-[2-(3-benzoylphenyl)propyl]piperidine], the inhibition in vivo at 80 µmol/kg was determined as 33% in data set [1] (setting [5]) and 92% in data set [2] (dose 0.08 millimoles/kg). Besides, the inhibition in vivo at 324 µmol/kg in data set [1] (setting [6]) was 58%. For the same compound, the “Ach percent inhibition of writhing” value stood at 46% in data set [3] (dose 25, s.c.) and 93% in data set [3] (dose 75, s.c.).
For the compound `CC(CN1CCCCC1CCC1CCCCC1)c1cccc(C(=O)c2ccccc2)c1` (stereo not drawn) [Example 7F, 2-(2-Cyclohexylethyl)-1-[2-(3-benzoylphenyl)propyl]piperidine], the inhibition in vivo at 80 µmol/kg in data set [1] (setting [5]) is 33%; in data set [2] (dose 0.08 millimoles/kg), 91%. The inhibition in vivo at 324 µmol/kg in data set [1] (setting [6]) is 51%. The “toxicity” value in data set [2] (dose 0.16 millimoles/kg) is listed as “Toxic”. The “Ach percent inhibition of writhing” value was found to be 7% in data set [3] (dose 25, s.c.) and 33% in data set [3] (dose 75, s.c.).
Take `CC(CN1CCCCC1CC1CCCCC1)c1cccc(C(=O)c2ccc(Cl)cc2)c1` (stereo not drawn) [Example 20, 2-cyclohexylmethyl-1-{2-[3-(4-chlorobenzoyl)phenyl]propyl}piperidine]: in data set [1] (setting [4]), the inhibition in vivo at 4 µmol/kg was determined as 16% and the inhibition in vivo at 20 µmol/kg came out at 52%. For the same compound, in data set [2], the inhibition in vivo at 5 µmol/kg stood at 63% and the inhibition in vivo at 20 µmol/kg was 90%. Moreover, the “toxicity” value in data set [2] (dose 0.08 millimoles/kg) is “Toxic”.
Take `CC(CN1CCCCC1CC1CCCCC1)c1cccc(C(=O)c2ccccc2Cl)c1` (stereo not drawn) [Example 20D, 2-Cyclohexylmethyl-1-{2-[3-(2-chlorobenzoyl)phenyl]propyl}piperidine]: in data set [1] (setting [4]), the inhibition in vivo at 4 µmol/kg came to 0% and the inhibition in vivo at 20 µmol/kg turned out to be 36%. Moreover, in data set [2], the inhibition in vivo at 5 µmol/kg stood at 35% and the inhibition in vivo at 20 µmol/kg is 54%. The inhibition in vivo at 80 µmol/kg in data set [2] (dose 0.08 millimoles/kg) amounted to 79%.
For `CC(CN1CCOCC1)c1ccc(C(=O)c2ccccc2)cc1` (stereo not drawn) [Example 24A, 4-[2-(4-benzoylphenyl)propyl]morpholine hydrochloride], the inhibition in vivo at 80 µmol/kg in data set [1] (setting [5]) was found to be 44%. The inhibition in vivo at 324 µmol/kg is 56% in data set [1] (setting [6]) and 78% in data set [2] (dose 0.324 millimoles/kg).
Regarding `CC(CN1CCC2(CC1)OCCO2)c1ccc(C(=O)c2ccccc2)cc1.Cl` (stereo not drawn) [Example 24B, 8-[2-(4-benzoylphenyl)propyl]1,4-dioxa-8-azaspiro[4,5]decane hydrochloride], the inhibition in vivo at 80 µmol/kg in data set [1] (setting [5]) is 38%; in data set [2] (dose 0.08 millimoles/kg) it was 30%. Moreover, in data set [1] (setting [6]), the inhibition in vivo at 324 µmol/kg came out at 50%. The “toxicity” value in data set [2] (dose 0.324 millimoles/kg) is recorded as “Toxic”.
On to `CC(CN1CCNCC1)c1ccc(C(=O)c2ccccc2)cc1.Cl.Cl` (stereo not drawn) [Example 24C, 1-[2-(4-benzoylphenyl)propyl]piperazine dihydrochloride], for which, in data set [1] (setting [5]), the inhibition in vivo at 80 µmol/kg was 16%. In addition, the inhibition in vivo at 324 µmol/kg in data set [1] (setting [6]) was 41%; in data set [2] (dose 0.324 millimoles/kg), 63%. For the same compound, the ED50 in data set [3] (po) stood at 20 mg/kg.
`CC(CN1CCSCC1)c1ccc(C(=O)c2ccccc2)cc1` (stereo not drawn) [Example 24D, 4-[2-(4-benzoylphenyl)propy]thiomorpholine hydrochloride]: the figures for the inhibition in vivo at 80 µmol/kg in data set [1] (setting [5]) and in data set [2] (dose 0.08 millimoles/kg) were 61% and 28%, respectively. Besides, the inhibition in vivo at 324 µmol/kg in data set [1] (setting [6]) turned out to be 70%. Further, the ED50 in data set [3] (po) stood at 50 mg/kg.
`CC(CN1CCC2(CC1)SCCS2)c1ccc(C(=O)c2ccccc2)cc1.Cl` (stereo not drawn) [Example 24E, 8-[2-(4-benzoylphenyl)propyl]-1,4-dithia-8-azaspiro[4,5]decane hydrochloride]: the ED50 in data set [3] (po) stood at 39 mg/kg.
`CC(CN1CCC2(CC1)OCCS2)c1ccc(C(=O)c2ccccc2)cc1.Cl` (stereo not drawn) [Example 24F, 8-[2-(4-benzoylphenyl)propyl]-1-oxa-4-thia-8-azaspiro[4,5]decane hydrochloride]: the ED50 in data set [3] (po) was determined as 18 mg/kg.
With `CC(CN1CCNCC1)c1cccc(C(=O)c2ccccc2)c1.Cl.Cl` (stereo not drawn) [Example 24G, 1-[2-(3-benzoylphenyl)propyl]piperazine dihydrochloride], the inhibition in vivo at 80 µmol/kg in data set [1] (setting [5]) was 32%. The inhibition in vivo at 324 µmol/kg in data set [1] (setting [6]) worked out at 52%. In addition, the 50% effective dose (ED50) was 30 mg/kg in data set [3] (po) and 5.6 mg/kg in data set [3] (sc).
Turning to `CC(C)(CN1CCOCC1)c1cccc(C(=O)c2ccccc2)c1.Cl` [Example 24H, 4-[2,2-dimethyl-2-(3-benzoylphenyl)ethyl]morpholine hydrochloride], the inhibition in vivo at 80 µmol/kg in data set [1] (setting [5]) came to 0%. Besides, the inhibition in vivo at 324 µmol/kg is 22% in data set [1] (setting [6]) and 8% in data set [2] (dose 0.324 millimoles/kg). In addition, the “Ach percent inhibition of writhing” value in data set [3] (dose 25, s.c.) was 7%; in data set [3] (dose 50, s.c.) it was 13%; in data set [3] (dose 150, s.c.) it was 73%.
As to `CC(C)(CN1CCC2(CC1)OCCO2)c1cccc(C(=O)c2ccccc2)c1.Cl` [Example 24J, 8-[2,2-dimethyl-2-(3-benzoylphenyl)ethyl]-1,4-dioxa-8-azaspiro[4,5]decane hydrochloride], the inhibition in vivo at 80 µmol/kg in data set [1] (setting [5]) came out at 6%. Further, the inhibition in vivo at 324 µmol/kg in data set [1] (setting [6]) was found to be 8%; in data set [2] (dose 0.324 millimoles/kg), 36%. Further, the “Ach percent inhibition of writhing” value in data set [3] (dose 25, s.c.) was 33%; in data set [3] (dose 50, p.o.), 27%; in data set [3] (dose 150, p.o.), 53%.
Regarding `CC(C)(CN1CCOCC1)c1ccc(C(=O)c2ccccc2)cc1.Cl` [Example 24K, 4-[2,2-dimethyl-2-(4-benzoylphenyl)ethyl]morpholine hydrochloride], the inhibition in vivo at 80 µmol/kg in data set [1] (setting [5]) worked out at 19%. The inhibition in vivo at 324 µmol/kg was 60% in data set [1] (setting [6]) and 7% in data set [2] (dose 0.324 millimoles/kg). For the same compound, the ED50 in data set [3] (po) turned out to be 38 mg/kg.
As to `CC(C)(CN1CCC2(CC1)OCCO2)c1ccc(C(=O)c2ccccc2)cc1.Cl` [Example 24L, 8-[2,2-dimethyl-2-(4-benzoylphenyl)ethyl]-1,4-dioxa-8-azaspiro[4,5]decane hydrochloride], the inhibition in vivo at 80 µmol/kg in data set [1] (setting [5]) was 46%; in data set [2] (dose 0.08 millimoles/kg) it was 24%. In addition, the inhibition in vivo at 324 µmol/kg in data set [1] (setting [6]) is 70%. Also, in data set [3] (po), the ED50 was 60 mg/kg.
`CC(C(=O)N1CCN(C2CCCCC2)CC1)c1cccc(Cc2ccccc2)c1.Cl` (stereo not drawn) [Example 25, 4-cyclohexyl-1-[α-(3-benzylphenyl)propionyl]piperazine hydrochloride]: the “C.E. percent inhibition (Table B)” value was 0% in data set [1] (dose 0.08 millimoles/kg) and 45% in data set [1] (dose 0.324 millimoles/kg). In data set [2] (dose 0.162 millimoles/kg), the “A.A. percent inhibition (Table B)” value was 79%.
Regarding `CC(C(=O)N1CCN(C2CCCCCC2)CC1)c1cccc(Cc2ccccc2)c1.Cl` (stereo not drawn) [Example 25B, 4-Cycloheptyl-1-[α-(3-benzylphenyl)propionyl]piperazine hydrochloride], the “C.E. percent inhibition (Table B)” value in data set [1] (dose 0.08 millimoles/kg) amounted to 25%; in data set [1] (dose 0.324 millimoles/kg), 44%. The “A.A. percent inhibition (Table B)” value in data set [2] (dose 0.324 millimoles/kg) came out at 78%.

(Values after US4417052A, “Phenyl-lower-alkyl piperidines and pyrrolidines” (Sterling Drug Inc., priority 1981, dated 1983).)
